Assay results from patent US20240025886A1, “INHIBITORS OF IGF2BP1-RNA BINDING” (YISSUM RESEARCH DEVELOPMENT COMPANY OF THE HEBREW …, priority 2020, published 2024).
Where “and” joins values, the source holds several entries; their conditions need not be identical. Equal values may be shown once.

Tests used:
[1] = target: T1, Igf2bp1 binding to Kras 6 RNA (Homo sapiens, UniProt Q9NZI8); test: EMSA, Igf2bp1 with fluorescent Kras 6 RNA; set-up: dose or concentration left out as unconfirmed
T1 construct: Recombinant full-length Igf2bp1 protein; made in house; host or cells: E. coli BL21(DE3)
Experimental: Recombinant Igf2bp1 protein was serially diluted (1:1) starting at an initial concentration of 10,000 nM in 0.75 μg heparin, in a total volume of 13 μL. Fluorescently labelled Kras 6 RNA (750 nM) diluted in reaction buffer (10 mM Tris pH 7.5, 100 mM NaCl, 0.1 mM EDTA, 1 mg/mL tRNA, 0.25% IGEPAL (Sigma), 0.5 mM DTT) was heated to 65° C. for 5 minutes, kept on ice for 1 minute and RNasin (200 U/mL) (ThermoScientific, RiboLock RNase inhibitor) was then added. […] RNA was added to each well protein sample, and after a 30 min incubation at room temperature in the dark, loading dye (3 μL) (30% glycerol, 0.01% bromocresol green) was added to each mixture. For compound inhibition experiments, compounds or DMSO were incubated for 4 hours at 37° C. with the protein prior to adding the RNA. Samples were electrophoresed on native TBE polyacrylamide gels (6% acrylamide/bis-acrylamide 37.5:1, 0.5×TBE) that had been pre-run for 30 min. Gels were run at 120V in 0.5×TBE, at 4° C. in the dark. They were then carefully washed and scanned using a Typhoon FLA9500 imager using Alexa 488 laser and LPB1/2 filter. Igf2bp1-RNA complex formation was quantified using the ImageJ software. Prism6 software was used for curve fitting and KD calculations.

Igf2bp1 = target: T2, Igf2bp1 (Homo sapiens, UniProt Q9NZI8); test: Microscale thermophoresis (MST) binding to full-length Igf2bp1; settings: MST
T2 construct: Recombinant full-length Igf2bp1 protein; made in house; host or cells: E. coli BL21(DE3)
Experimental: Recombinant full-length Igf2bp1 protein was labelled with RED-tris-NTA dye using a Monolith NT His-Tag Labelling Kit (NanoTemper) while RRM12, KH12 and KH34 di-domain peptides were labelled using the Protein Labeling Kit RED NHS 2nd generation (NanoTemper). Labelled proteins were spun at 15,000 g for 5 min to eliminate aggregates. All samples were 2× labelled protein mix of Igf2bp1 (200 nM) in PBST and were combined (1:1) with serial dilutions of compound or Kras6 RNA in binding buffer (10 mMTris pH=7.5, 100 mM NaCl, 0.1 mM EDTA, 0.06% IPEGAL, 0.02 μg/μL tRNA, 2 mM DTT, 0.1 μg/μL heparin) in final volume of 20 μL, room temperature for 15 min. Samples were then loaded into standard capillaries (NanoTemper) and read in the Monolith NT.115 scanner (NanoTemper) using the red filter with reading conditions of 95% LED power and 40% MST power, 5 sec fluorescence before, 30 sec MST on, 5 sec fluorescence after and 25 sec delay between samples. Results were analyzed using the MO Control software (NanoTemper) for curve fitting to KD.

[2] = target: T1, Igf2bp1 binding to Kras 6 RNA; test: Fluorescence polarization (FP) assay of Igf2bp1 binding to fluorescent Kras 6 RNA; settings: FP dose response; read-out: IC50 for inhibition of Igf2bp1 binding to Kras 6 RNA
Experimental: For the small molecule screen, compounds were obtained from the collection maintained at the Grand Israel National Center for Personalized Medicine, consisting of molecules purchased from commercial vendors. Labelled RNA (10 nM) was incubated with recombinant Igf2bp1 protein (400 nM) in FAM-RNA buffer (10 mM Tris pH 8.0, 75 mM KCl, 0.5 mM EDTA, 1 mM DTT, 0.0188 U/μL RNAsin, 0.0005 μg/mL heparin, 0.0001 μg/μL tRNA, 0.01% Triton X-100, 3 mM MgCl2, 0.05% IGEPAL) at room temperature for 15 min. […] of this reaction mix was aliquoted with GNF WDII (USA) into wells of 1536 well plates, with a final concentration of […] compound or DMSO. The plates were spun down and read in a BMG Pherastar FS (Germany) plate reader plate reader, in FP mode with a 485/520/520 polarization filter, calibrated to 35 mP for free fluorescein with similar total intensity as experimental samples. […]
To determine the quality of the inventors screening assay, the Z′ factor for each plate was calculated with a Z′ factor greater than 0.5 indicating a robust assay suitable for high throughput screening. Compounds that altered the overall fluorescence intensity compared to controls were considered auto florescence and excluded from further analysis. […] Any small molecule that causes a change of more than three standard deviations from the mean is determined appropriate for further investigation.

[3] = target: Igf2bp1-cMyc RNA interaction (Homo sapiens, UniProt Q9NZI8); settings: fluorescence polarization; cited from earlier work
[4] = Cell proliferation, compound 15 (cell line not stated); format: cell-based
H1299 cells = test: Wound healing (cell migration) assay, H1299 cells; format: cell-based, human; settings: H1299 cells; 10 μM compound 15 vs 20 μM 7773 in FIGS. 20A-B
Experimental: Cells were seeded in 96 IncuCyte® ImageLock plates (20×10^3 cells per well) for 24 hours, to a near confluency of 95%, before the addition of increasing concentrations of compound. After a further 24 hours, wells were scratched using the IncuCyte® 96-well WoundMaker Tool, and the cells cultured for an additional 48 hours using the IncuCyte® S3 Live-Cell Analysis System (Essen BioScience). The plate was imaged at increments of 120 minutes for a period of 48 hours, and then analyzed for relative wound healing.

La protein = target: T3, La protein (UniProt P05455 P05455:1-408); test: EMSA; not affected by 7773; settings: label: 5'-6FAM
T3 sequence: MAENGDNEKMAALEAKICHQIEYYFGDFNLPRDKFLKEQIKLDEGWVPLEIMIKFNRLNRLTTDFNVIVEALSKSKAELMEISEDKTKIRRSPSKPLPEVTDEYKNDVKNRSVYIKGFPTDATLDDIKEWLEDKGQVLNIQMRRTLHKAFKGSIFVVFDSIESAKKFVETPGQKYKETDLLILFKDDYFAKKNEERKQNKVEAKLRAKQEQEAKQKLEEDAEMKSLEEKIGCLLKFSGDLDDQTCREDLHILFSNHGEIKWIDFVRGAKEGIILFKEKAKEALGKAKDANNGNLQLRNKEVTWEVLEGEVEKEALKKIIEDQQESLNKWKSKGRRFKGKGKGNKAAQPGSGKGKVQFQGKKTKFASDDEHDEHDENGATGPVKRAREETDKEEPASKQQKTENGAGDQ

T1 sequence (Q9NZI8 whole entry): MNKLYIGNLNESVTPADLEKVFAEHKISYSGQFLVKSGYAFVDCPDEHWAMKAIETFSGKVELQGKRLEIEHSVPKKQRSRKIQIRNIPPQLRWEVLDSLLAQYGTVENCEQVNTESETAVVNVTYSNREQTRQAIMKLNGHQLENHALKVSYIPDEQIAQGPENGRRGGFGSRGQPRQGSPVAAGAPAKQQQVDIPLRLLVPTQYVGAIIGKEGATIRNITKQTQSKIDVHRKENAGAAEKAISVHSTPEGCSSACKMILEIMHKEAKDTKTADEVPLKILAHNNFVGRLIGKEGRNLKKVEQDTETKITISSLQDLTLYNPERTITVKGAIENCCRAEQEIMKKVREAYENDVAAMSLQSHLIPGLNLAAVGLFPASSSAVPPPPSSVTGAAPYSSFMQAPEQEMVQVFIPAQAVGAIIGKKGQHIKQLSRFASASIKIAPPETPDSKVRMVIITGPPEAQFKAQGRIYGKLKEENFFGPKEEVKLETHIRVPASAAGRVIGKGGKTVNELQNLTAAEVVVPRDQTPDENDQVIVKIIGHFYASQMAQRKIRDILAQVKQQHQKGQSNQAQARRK
T2 sequence (Q9NZI8 whole entry): as above
Igf2bp1-cMyc RNA interaction, sequence (Q9NZI8 whole entry): as above

Molecule: O=C(c1cccc(-n2cnnn2)c1)N1CCCC(Nc2ccc3c(c2)OCO3)C1 (stereo not shown) [Compound 393, reference compound]
- Inhibition of Igf2bp1 binding to Kras 6 RNA (gel shift) [1]: lower, but observable, inhibition of RNA binding
- Affinity for Igf2bp1 relative to 7773 (Igf2bp1): approximately seven times lower affinity
- IC50 [2]: ~90 µM and > 100 µM

Molecule: NC(=O)c1ccccc1N=Cc1ccc(Br)s1 [BTYNB]
- Igf2bp1-cMyc RNA interaction in vitro [3]: inhibited

Molecule: O=C(c1ccc(Cn2c(CO)cc3ccccc32)cc1)N1CCN(c2ccc3c(c2)OCO3)CC1 [Compound 15]
- Cell proliferation [4]: inhibition of cell proliferation
- Efficiency at inhibiting wound healing compared to Compound 7773 (H1299 cells): over 10 fold

Molecule: CCCGUUGCUUUUCCUCUGGGAAGGAUGGCGCACGCUGGG (ssRNA) [Bcl2 RNA oligo]
- binding result (La protein): binds
